Laboratory results published in US8030547B2, “Gene coding for acetolactate synthase” (priority 2002, dated 2011).

Columns and labels:
[1] = biological target: T1, GST fusion P171H/R172S mutant ALS protein (Oryza sativa subsp. japonica, UniProt Q6K2E8, P171H/R172S); assay: Herbicide sensitivity of ALS protein expressed in E. coli (crude enzyme solution), P171H/R172S; type: biochemical, rice (Oryza sativa var. Kinmaze); settings: for RS ratio/ predicted RS ratio / Predicted RS ratio: P171H/R172S mutant; for RS ratio: P171H/R172S mutant vs wild type; for Predicted RS ratio: product of RS ratios of the 1-point mutants
T1 construct: made in house; host or cells: E. coli JM109, pGEX-2T(ALS P171H, R172S mutant); crude supernatant
Procedure: (§1) ALS activity resulting from the mutant ALS protein contained in the eluted fractions apportioned into each test tube for apportioning was measured as follows. A reaction solution to be used in a measurement reaction was prepared by mixing an eluted fraction to be measured with a solution comprising 20 mM sodium pyruvate, 0.5 mM TPP, 0.5 mM MgCl2, 10 μM FAD and 20 mM potassium phosphate buffer (pH 7.5). One ml of this reaction solution was used. After the eluted fraction to be measured was added, the measurement reaction was performed at 30° C. for 40 to 60 minutes. Then, the reaction was stopped by addition of 0.1 ml of 6N sulfuric acid (or 0.25 N sodium hydroxide).
(§2) After the reaction was stopped, the reaction solution was incubated at 60° C. for 10 minutes, thereby converting acetolactate contained in the reaction solution to acetoin.
(§3) Then, to quantify acetoin contained in the reaction solution, 1 ml of 0.5% (w/v) creatine and 1 ml of 5% (w/v) α-naphthol dissolved in 2.5 N sodium hydroxide was added to the reaction solution, followed by incubation at 37° C. for 10 minutes. Acetoin was then quantified by color comparison of the absorbance (at 525 nm) of the reaction solution, thereby evaluating ALS activity. In addition, since the reaction solution contained a small amount of sodium pyruvate, reaction time 0 was used as control.
E. coli transformed with pGEX-2T(ALS-wild) constructed in Example 3(5), E. coli transformed with pGEX-2T(ALS-W548L mutant) constructed in Example 5, E. coli transformed with pGEX-2T(ALS-S627I mutant) constructed in Example 5, E. coli transformed with pGEX-2T(ALS P171H mutant) constructed in Example 6, E. coli transformed with pGEX-2T(ALS R172S mutant) constructed in Example 6, E. coli transformed with pGEX-2T(ALS P171H, R172S mutant) constructed in Example 7, E. coli transformed with pGEX-2T(ALS-P171H, W548L mutant) constructed in Example 8, E. coli transformed with pGEX-2T(ALS-P171H, S627I mutant) constructed in Example 8, and E. coli transformed with pGEX-2T(ALS-P171H, W548L, S627I mutant) constructed in Example 9 were respectively shake-cultured (pre-culture) at 27° C. in 2 ml of LB liquid medium containing ampicillin. These types of E. coli were respectively cultured in 250 ml of LB liquid medium containing ampicillin using 1 ml of the pre-culture solution. After culturing overnight, 1 mM IPTG was added to the media, and then culturing was performed for a further 3 to 4 hours, so that the expression of GST fusion protein was induced. In addition, the cells were stored at −80° C. after washing.
Preparation and purification of ALS from E. coli were performed by the following method. First, the pellet of the transformant E. coli stored at −80° C. was suspended in ALS extraction buffer (potassium phosphate buffer (pH 7.5) containing 30% glycerol and 0.5 mM MgCl2). Specifically, 2.5 ml of the buffer was added to the pellet obtained from 50 ml of the culture solution. The suspension was subjected to ultrasonication (Heat Systems-Ultrasonics, Sonicator W-225R, micro chip, output control 8, interval of approximately 1 second, twice (40 seconds each)), and subjected to centrifugation at 15000×g, 4° C. for 20 minutes, thereby obtaining the supernatant as a crude enzyme solution.
Herbicide sensitivity of the wild type ALS protein and that of mutant ALS protein were examined using the 9 types of crude enzyme solutions obtained in Example 10. Herbicide sensitivity test was performed according to procedures almost the same as those in Example 2. However, in this example, reaction temperature was 37° C., reaction time was 30 minutes, and 10 mM valine was added to the reaction solution to inhibit ALS activity derived from E. coli. Further, three types of herbicides, bispyribac-sodium, pyrithiobac-sodium, and pyriminobac, were used as PC herbicides; chlorsulfuron was used as a sulfonylurea herbicide; and imazaquin was used as an imidazolinon herbicide. […]

[2] = test system: mutant ALS protein of Sr line; assay: Herbicide sensitivity of partially purified ALS protein (ALS activity inhibition), Sr line; type: biochemical, Oryza sativa var. Kinmaze; settings: I50 of the resistant mutant divided by I50 of the wild type
Procedure: (§4) First, 200 g or more of resistant mutant was prepared by a liquid culture method (no supplementation with bispyribac-sodium), using a composition as shown in Table 3 excluding Gelrite. Then, about 150 g of the resistant mutant was homogenized using Hiscotron in a volume of buffer-1 [100 mM potassium phosphate buffer (pH 7.5) containing 20% (v/v) glycerol, […] thiamin pyrophosphate (TPP), 10 μM flavin adenine dinucleotide (FAD), 0.5 mM MgCl2, and a volume of polyvinyl polypyrrolidone one-tenth that of tissue volume] 3-fold greater than tissue volume. The homogenate was filtered through nylon gauze, and then centrifuged at 15000×g for 20 minutes. Ammonium sulfate was added to the centrifuged supernatant to 50% saturation, and then allowed to stand in ice for approximately 1 hour. The mixture was again centrifuged at 15000×g for 20 minutes, and then the precipitated fraction was dissolved in approximately 30 ml of buffer-2 [10 mM Tris hydrochloric acid buffer (pH 7.5) containing 20% (v/v) glycerol, 0.5 mM TPP and 0.5 mM MgCl2]. The mixture was again centrifuged at 15000×g for 20 minutes, and then the supernatant fraction was applied to a Sephadex G-25 (Amersham Bioscience). About 40 ml of the fraction that had passed through the column was collected as a crude enzyme solution.
(§5) Next, the protein concentration of the crude enzyme solution was measured by the Bradford method according to the manual of Bio-Rad Protein Assay. The crude enzyme solution was then filtered through a Whatman filter (Whatman), and then the crude enzyme solution in an appropriate protein amount (10 to 15 ml) was applied to three vertically-connected HiTrap Q columns (Amersham Bioscience) using a FPLC device (Amersham Bioscience). After protein component was adsorbed using HiTrap Q, unadsorbed fractions were washed out using buffer-2 having a volume 3 to 5 fold greater than the bed volume. Then, the adsorbed protein component was eluted using an eluate having a volume 10 fold greater than the bed volume (150 ml). Here, the eluate was prepared by dissolving KCl with a linear concentration gradient (0 to 0.4 M) into buffer-2. The eluate containing the eluted protein component was apportioned, 5 ml each, into a plurality of test tubes for apportioning. Further, to stabilize ALS protein contained in the eluted protein component, 0.5 ml of buffer-2 containing 20 mM sodium pyruvate had been previously added to each test tube for apportioning.
as §1, §2, §3
(§6) Using the enzyme solution containing the mutant ALS protein, sensitivity of the mutant ALS protein to bispyribac-sodium, chlorsulfuron and imazaquin was examined. […]

[3] = biological target: T2, mutant ALS protein of Sr line (Oryza sativa subsp. japonica, UniProt Q6K2E8); assay: as above; type: biochemical, Oryza sativa var. Kinmaze; settings: read-out: I50 (nM) Sr; partially purified ALS, 30° C., probit analysis
T2 construct: other: partially purified ALS, 30° C., probit analysis
Procedure: as §4, §5, §1, §2, §3, §6

T1 sequence (Q6K2E8 44-644 P171H/R172S): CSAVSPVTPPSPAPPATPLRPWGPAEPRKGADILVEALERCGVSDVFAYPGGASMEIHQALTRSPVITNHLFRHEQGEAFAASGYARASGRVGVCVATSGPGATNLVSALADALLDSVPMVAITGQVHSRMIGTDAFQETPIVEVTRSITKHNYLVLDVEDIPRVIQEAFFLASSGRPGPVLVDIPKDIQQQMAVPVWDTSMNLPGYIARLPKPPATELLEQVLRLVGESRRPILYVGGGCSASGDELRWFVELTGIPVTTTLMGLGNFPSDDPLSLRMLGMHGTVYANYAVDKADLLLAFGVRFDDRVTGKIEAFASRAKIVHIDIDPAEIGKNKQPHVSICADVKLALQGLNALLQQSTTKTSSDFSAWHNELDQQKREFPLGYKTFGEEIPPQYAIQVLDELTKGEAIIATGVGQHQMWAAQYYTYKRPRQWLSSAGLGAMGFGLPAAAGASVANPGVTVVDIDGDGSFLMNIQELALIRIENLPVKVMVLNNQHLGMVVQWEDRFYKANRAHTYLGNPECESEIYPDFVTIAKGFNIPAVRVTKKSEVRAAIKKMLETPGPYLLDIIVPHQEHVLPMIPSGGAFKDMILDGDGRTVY
T2 sequence (Q6K2E8 whole entry W548L/S627I, form open): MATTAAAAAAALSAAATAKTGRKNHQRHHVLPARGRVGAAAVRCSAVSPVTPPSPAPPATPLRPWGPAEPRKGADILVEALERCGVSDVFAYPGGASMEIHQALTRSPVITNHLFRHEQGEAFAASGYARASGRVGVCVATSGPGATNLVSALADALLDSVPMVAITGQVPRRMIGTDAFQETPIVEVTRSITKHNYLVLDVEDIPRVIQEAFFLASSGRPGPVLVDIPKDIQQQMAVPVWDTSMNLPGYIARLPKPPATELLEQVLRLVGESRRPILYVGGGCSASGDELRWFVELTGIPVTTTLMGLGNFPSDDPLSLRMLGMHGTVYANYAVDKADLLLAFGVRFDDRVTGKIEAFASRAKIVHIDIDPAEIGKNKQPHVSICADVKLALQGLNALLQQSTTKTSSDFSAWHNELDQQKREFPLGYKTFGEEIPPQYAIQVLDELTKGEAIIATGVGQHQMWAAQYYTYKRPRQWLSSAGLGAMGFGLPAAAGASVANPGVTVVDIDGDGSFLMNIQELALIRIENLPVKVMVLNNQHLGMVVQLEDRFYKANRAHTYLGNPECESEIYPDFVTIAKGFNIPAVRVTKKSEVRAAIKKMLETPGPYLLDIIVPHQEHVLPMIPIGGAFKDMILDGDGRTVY

Compound | IC50 [1] [nM] | RS ratio/ predicted RS ratio [1] | RS ratio [1] | Predicted RS ratio [1] | RS ratio Sr [2] | IC50 [3] [nM]
COc1nc(C)nc(NC(=O)NS(=O)(=O)c2ccccc2Cl)n1 [chlorsulfuron] | 5500 | 5.8 | 420 | 72 | 5.36 | 92.8
COc1cc(OC)nc(Oc2cccc(Oc3nc(OC)cc(OC)n3)c2C(=O)O)n1 [bispyribac-sodium] | 48 | 0.89 | 7.6 | 8.5 | 74.8 | 421
CC(C)C1(C)N=C(c2nc3ccccc3cc2C(=O)O)NC1=O (stereo not drawn) [imazaquin] | 3900 | 1.2 | 1.8 | 1.5 | 11.3 | 16700
